Reference: the supplement of paper PMC10733146

What was measured:
Experiment in all cases: viability relative to DMSO control (fraction); higher = less drug effect (more viable cells)
Conditions in all cases: 48 h
[1] = test system: primary AML patient cells (S060)
In short: (§1)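 In 384-well plates with compounds pre-plated at five concentrations (one well per concentration), primary mononuclear tumour cells were plated at 4 × 10^4 cells per well. The cells came from blood or bone marrow by Ficoll isolation or from processed lymph node, and were used fresh or cryopreserved. Culture ran for 48 h at 37 °C and 5% CO2 in RPMI-1640 containing penicillin/streptomycin, L-glutamine and human serum. Viability was read as CellTiter-Glo luminescence, normalised to the median of 16 inner DMSO wells.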

[2] = test system: primary DLBCL patient cells (S049)
In short: as §1

[3] = test system: primary CLL patient cells (S043)
In short: as §1

[4] = test system: primary DLBCL patient cells (S076)
In short: as §1

[5] = test system: primary ALL patient cells (S048)
In short: as §1

[6] = test system: primary AML patient cells (S056)
In short: as §1

[7] = test system: primary AML patient cells (S079)
In short: as §1

[8] = test system: primary ALL patient cells (S088)
In short: as §1

[9] = test system: primary AML patient cells (S089)
In short: as §1

[10] = test system: primary T-NHL patient cells (S058)
In short: as §1

[11] = test system: primary AML patient cells (S072)
In short: as §1

[12] = test system: primary AML patient cells (S006)
In short: as §1

[13] = test system: primary AML patient cells (S071)
In short: as §1

[14] = test system: primary CLL patient cells (S031)
In short: as §1

[15] = test system: primary MCL patient cells (S063)
In short: as §1

[16] = test system: primary DLBCL patient cells (S082)
In short: as §1

[17] = test system: primary AML patient cells (S055)
In short: as §1

## COc1cccc2c1C(=O)c1c(O)c3c(c(O)c1C2=O)C[C@@](O)(C(=O)CO)C[C@@H]3O[C@H]1C[C@H](N)[C@H](O)[C@H](C)O1 [Doxorubicin]
[1]; 0.0016 µM
  viability: 1.03
[1]; 0.008 µM
  viability: 1.05
[1]; 0.04 µM
  viability: 1.04
[1]; 0.2 µM
  viability: 1.16
[1]; 1 µM
  viability: 0.124
[2]; 0.0016 µM
  viability: 1.14
[2]; 0.008 µM
  viability: 1
[2]; 0.04 µM
  viability: 0.827
[2]; 0.2 µM
  viability: 0.3
[2]; 1 µM
  viability: 0.0345
[3]; 0.0016 µM
  viability: 1.03
[3]; 0.008 µM
  viability: 0.956
[3]; 0.04 µM
  viability: 0.97
[3]; 0.2 µM
  viability: 0.615
[3]; 1 µM
  viability: 0.0447
[4]; 0.0016 µM
  viability: 1.05
[4]; 0.008 µM
  viability: 1.1
[4]; 0.04 µM
  viability: 0.822
[4]; 0.2 µM
  viability: 0.453
[4]; 1 µM
  viability: 0.034
[5]; 0.0016 µM
  viability: 1.06
[5]; 0.008 µM
  viability: 1.01
[5]; 0.04 µM
  viability: 0.418
[5]; 0.2 µM
  viability: 0.0592
[5]; 1 µM
  viability: 0.0152
[6]; 0.0016 µM
  viability: 1.02
[6]; 0.008 µM
  viability: 0.889
[6]; 0.04 µM
  viability: 0.812
[6]; 0.2 µM
  viability: 0.584
[6]; 1 µM
  viability: 0.0807
[7]; 0.0016 µM
  viability: 1.05
[7]; 0.008 µM
  viability: 1.1
[7]; 0.04 µM
  viability: 1.03
[7]; 0.2 µM
  viability: 0.769
[7]; 1 µM
  viability: 0.244
[8]; 0.0016 µM
  viability: 1.05
[8]; 0.008 µM
  viability: 1.02
[8]; 0.04 µM
  viability: 0.828
[8]; 0.2 µM
  viability: 0.221
[8]; 1 µM
  viability: 0.0329
[9]; 0.0016 µM
  viability: 1.01
[9]; 0.008 µM
  viability: 1
[9]; 0.04 µM
  viability: 1.01
[9]; 0.2 µM
  viability: 0.665
[9]; 1 µM
  viability: 0.187
[10]; 0.0016 µM
  viability: 1.03
[10]; 0.008 µM
  viability: 0.96
[10]; 0.04 µM
  viability: 0.823
[10]; 0.2 µM
  viability: 0.525
[10]; 1 µM
  viability: 0.145
[11]; 0.0016 µM
  viability: 1.05
[11]; 0.008 µM
  viability: 1.01
[11]; 0.04 µM
  viability: 0.947
[11]; 0.2 µM
  viability: 0.704
[11]; 1 µM
  viability: 0.162
[12]; 0.0016 µM
  viability: 1.02
[12]; 0.008 µM
  viability: 1.05
[12]; 0.04 µM
  viability: 0.788
[12]; 0.2 µM
  viability: 0.32
[12]; 1 µM
  viability: 0.0625
[13]; 0.0016 µM
  viability: 0.978
[13]; 0.008 µM
  viability: 0.745
[13]; 0.04 µM
  viability: 0.27
[13]; 0.2 µM
  viability: 0.116
[13]; 1 µM
  viability: 0.0761
[14]; 0.0016 µM
  viability: 1.14
[14]; 0.008 µM
  viability: 1.02
[14]; 0.04 µM
  viability: 0.534
[14]; 0.2 µM
  viability: 0.0601
[14]; 1 µM
  viability: 0.0158
[15]; 0.0016 µM
  viability: 1.01
[15]; 0.008 µM
  viability: 0.98
[15]; 0.04 µM
  viability: 0.997
[15]; 0.2 µM
  viability: 0.735
[15]; 1 µM
  viability: 0.0566
[16]; 0.0016 µM
  viability: 1.11
[16]; 0.008 µM
  viability: 1.1
[16]; 0.04 µM
  viability: 0.945
[16]; 0.2 µM
  viability: 0.878
[16]; 1 µM
  viability: 0.0843
[17]; 0.0016 µM
  viability: 1.02
[17]; 0.008 µM
  viability: 0.99
[17]; 0.04 µM
  viability: 1.02
[17]; 0.2 µM
  viability: 0.947
[17]; 1 µM
  viability: 0.487

## Nc1nc(F)nc2c1ncn2[C@@H]1O[C@H](CO)[C@@H](O)[C@@H]1O [Fludarabine]
[1]; 0.016 µM
  viability: 1.02
[1]; 0.08 µM
  viability: 1.01
[1]; 0.4 µM
  viability: 1.06
[1]; 2 µM
  viability: 1.03
[1]; 10 µM
  viability: 0.89
[2]; 0.016 µM
  viability: 1.12
[2]; 0.08 µM
  viability: 1.11
[2]; 0.4 µM
  viability: 1.04
[2]; 2 µM
  viability: 0.775
[2]; 10 µM
  viability: 0.375
[3]; 0.016 µM
  viability: 1.02
[3]; 0.08 µM
  viability: 0.982
[3]; 0.4 µM
  viability: 0.882
[3]; 2 µM
  viability: 0.614
[3]; 10 µM
  viability: 0.236
[4]; 0.016 µM
  viability: 1.05
[4]; 0.08 µM
  viability: 1.07
[4]; 0.4 µM
  viability: 0.772
[4]; 2 µM
  viability: 0.373
[4]; 10 µM
  viability: 0.203
[5]; 0.016 µM
  viability: 0.991
[5]; 0.08 µM
  viability: 0.881
[5]; 0.4 µM
  viability: 0.337
[5]; 2 µM
  viability: 0.0558
[5]; 10 µM
  viability: 0.028
[6]; 0.016 µM
  viability: 1.3
[6]; 0.08 µM
  viability: 0.88
[6]; 0.4 µM
  viability: 0.725
[6]; 2 µM
  viability: 0.208
[6]; 10 µM
  viability: 0.0833
[7]; 0.016 µM
  viability: 1.05
[7]; 0.08 µM
  viability: 1.01
[7]; 0.4 µM
  viability: 0.819
[7]; 2 µM
  viability: 0.453
[7]; 10 µM
  viability: 0.191
[8]; 0.016 µM
  viability: 1
[8]; 0.08 µM
  viability: 0.975
[8]; 0.4 µM
  viability: 0.715
[8]; 2 µM
  viability: 0.283
[8]; 10 µM
  viability: 0.2
[9]; 0.016 µM
  viability: 0.949
[9]; 0.08 µM
  viability: 1.18
[9]; 0.4 µM
  viability: 0.878
[9]; 2 µM
  viability: 0.597
[9]; 10 µM
  viability: 0.401
[10]; 0.016 µM
  viability: 1.15
[10]; 0.08 µM
  viability: 1.05
[10]; 0.4 µM
  viability: 0.829
[10]; 2 µM
  viability: 0.288
[10]; 10 µM
  viability: 0.133
[11]; 0.016 µM
  viability: 1.02
[11]; 0.08 µM
  viability: 1.08
[11]; 0.4 µM
  viability: 0.824
[11]; 2 µM
  viability: 0.724
[11]; 10 µM
  viability: 0.529
[12]; 0.016 µM
  viability: 1.02
[12]; 0.08 µM
  viability: 0.929
[12]; 0.4 µM
  viability: 0.529
[12]; 2 µM
  viability: 0.115
[12]; 10 µM
  viability: 0.0573
[13]; 0.016 µM
  viability: 0.997
[13]; 0.08 µM
  viability: 0.973
[13]; 0.4 µM
  viability: 0.491
[13]; 2 µM
  viability: 0.195
[13]; 10 µM
  viability: 0.135
[14]; 0.016 µM
  viability: 1.05
[14]; 0.08 µM
  viability: 1.02
[14]; 0.4 µM
  viability: 0.779
[14]; 2 µM
  viability: 0.276
[14]; 10 µM
  viability: 0.0672
[15]; 0.016 µM
  viability: 1.03
[15]; 0.08 µM
  viability: 1
[15]; 0.4 µM
  viability: 0.983
[15]; 2 µM
  viability: 0.845
[15]; 10 µM
  viability: 0.196
[16]; 0.016 µM
  viability: 1.03
[16]; 0.08 µM
  viability: 0.94
[16]; 0.4 µM
  viability: 0.908
[16]; 2 µM
  viability: 0.588
[16]; 10 µM
  viability: 0.429
[17]; 0.016 µM
  viability: 1.05
[17]; 0.08 µM
  viability: 0.976
[17]; 0.4 µM
  viability: 0.937
[17]; 2 µM
  viability: 0.624
[17]; 10 µM
  viability: 0.256
